{
  "source": "patent US10245256B2",
  "about": "“Nitroxides for use in treating or preventing diabetes and obesity” (Mitos Pharmaceuticals, Inc., priority 2005, dated 2019)",
  "key": {"[1]": {"test_system": "Keratinocyte Growth Factor (Fibroblast Growth Factor 7)", "assay": "Gene expression in cardiac tissue of mice fed Tempol, chip-based microarray", "assay_type": "in vivo", "details": "5 mg/g of food from 14 to 31 months", "protocol": "To assess the effects of Tempol on gene expression, Tempol was administered to experimental mice at a dose of 5 mg/g of food from 14 months to 31 months after birth. Mice receiving the same food without the addition of Tempol were used as a negative control. At the age of 31 months, the experimental animals were sacrificed and the hearts were surgically removed. The expression of a broad spectrum of genes in the cardiac tissue was assessed using chip-based microarray technology. Such chips are well known in the art and are widely used to assess gene expression."}, "[2]": {"test_system": "keratinocyte growth factor", "assay": "Protein level of keratinocyte growth factor in pancreatic ductal cells of patient after Tempol treatment", "assay_type": "in vivo, human", "details": "1500 mg per day for 180 days", "protocol": "(§1) A 70-kilogram diabetic patient is administered a dose of 1500 mg of Tempol per day for 180 days. This may be administered in a single dose, or may be administered as a number of smaller doses over a 24-hour period: for example, three 500-mg doses at eight-hour intervals. Following treatment, the protein level of keratinocyte growth factor in the pancreatic ductal cells, and the serum level of adiponectin, is increased.\nas §1, with “70-kilogram” for “70-kilogram diabetic”, “patient at risk for but not yet diagnosed with diabetes” for “patient”"}, "[3]": {"test_system": "Adiponectin, C1Q and collagen domain containing (ADIPOQ)", "assay": "Gene expression in adipose tissue of mice fed Tempol, Affymetrix MOE430A 2.0 array", "assay_type": "in vivo", "details": "5 g/kg of diet from 12 through 15 months", "protocol": "In a further gene expression study, Tempol was administered to experimental mice at a dose of 5 g/kg of diet from 12 months through 15 months. Mice receiving the same diet without the addition of Tempol were used as a negative control. At the age of 15 months, the adipose tissue of the experimental animals was obtained. The expression of a broad spectrum of genes in the adipose tissue was assessed using chip-based microarray technology. Specifically, in this case an Affymetrix MOE430A 2.0 array, containing 12,960 genes, was employed. Such chips are well known in the art and are widely used to assess gene expression."}, "[4]": {"test_system": "adiponectin", "assay": "Serum level of adiponectin of patient after Tempol treatment", "assay_type": "in vivo, human", "details": "1500 mg per day for 180 days", "protocol": "as §1\nas §1, with “70-kilogram” for “70-kilogram diabetic”, “patient at risk for but not yet diagnosed with diabetes” for “patient”"}, "[5]": {"details": "70-kilogram patient at risk for but not yet diagnosed with diabetes"}},
  "data": [
    {"smiles": "CC1(C)CC(O)CC(C)(C)N1[O]", "note": "[Tempol, 4-hydroxy-2,2,6,6-tetramethylpiperidine-1-oxyl]", "values": [
      {"measurement": "KGF expression, TEMPOL-treated mouse tp51", "setting": "[1]; microarray signal, individual animal tp51", "result": 13},
      {"measurement": "KGF expression, TEMPOL-treated mouse tp52", "setting": "[1]; microarray signal, individual animal tp52", "result": 52},
      {"measurement": "KGF expression, TEMPOL-treated mouse tp53", "setting": "[1]; microarray signal, individual animal tp53", "result": 96},
      {"measurement": "Fold change of KGF expression", "setting": "[1]; TEMPOL-treated vs control mice", "result": 2.1, "unit": "fold"},
      {"measurement": "protein level of keratinocyte growth factor in the pancreatic ductal cells", "setting": "[2]; 70-kilogram diabetic patient", "result": "increased"},
      {"measurement": "protein level of keratinocyte growth factor in the pancreatic ductal cells", "setting": "[2]; [5]", "result": "increased"},
      {"measurement": "Mean adiponectin expression (Tempol-treated mice)", "setting": "[3]; microarray signal, control mean 27698", "result": 33876},
      {"measurement": "Fold change of adiponectin expression", "setting": "[3]; Tempol-treated vs control mice, P value 0.003", "result": "increase in expression"},
      {"measurement": "serum level of adiponectin", "setting": "[4]; 70-kilogram diabetic patient", "result": "increased"},
      {"measurement": "serum level of adiponectin", "setting": "[4]; [5]", "result": "increased"}
    ]}
  ]
}
